Reference: patent US20090143279A1 (priority 2007, published 2009)
Read-outs that look alike come from different tables or passages of the source.

How the values were obtained:
OXPHOS gene expression = type: cell-based, mouse; details: for GE-HTS (composite Z-score): normalized score vs mock-treated (DMSO) wells
[1] = system: mitochondrial membrane potential; type: cell-based, mouse; details: for ΔΨm (composite Z-score): normalized score vs mock-treated (DMSO) wells
[2] = system: cellular dehydrogenase activity; details: for MTT (composite Z-score): normalized score vs mock-treated (DMSO) wells
reactive oxygen species = type: cell-based, mouse; details: for ROS (composite Z-score): normalized score vs mock-treated (DMSO) wells
mtOXPHOS transcripts = type: cell-based, mouse; details: for mitoOX (composite Z-score): normalized score vs mock-treated (DMSO) wells
C2C12 myotubes = details: for Viability (composite Z-score): normalized score vs mock-treated (DMSO) wells
nuOXPHOS transcripts = type: cell-based, mouse; details: for nucOX (composite Z-score): normalized score vs mock-treated (DMSO) wells
cytochrome c = type: cell-based, mouse; details: for cyt c (composite Z-score): normalized score vs mock-treated (DMSO) wells
[3] = composite Z-score vs DMSO, Conc 20 μM
[4] = normalized composite Z-score vs mock-treated (DMSO) wells, Conc 20 μM
[5] = composite Z-score vs mock-treated (DMSO) wells, Conc 20 μM
[6] = 20 μM, composite Z-score vs DMSO
[7] = composite Z-score vs DMSO wells, Conc 20 μM
[8] = Table 7, C2C12 myotubes, 48 h, composite Z-score

Chain of cytochrome c (P62897 whole entry): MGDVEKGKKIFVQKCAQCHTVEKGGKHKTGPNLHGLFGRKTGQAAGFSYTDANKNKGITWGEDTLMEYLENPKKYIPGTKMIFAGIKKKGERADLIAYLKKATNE

Compound: COc1ccc(-c2c(O)c3c(OC)c4c(cc3oc2=O)OC(C)(C)CC4)cc1 [dihydrorobustic acid, reference compound]
- GE-HTS (OXPHOS gene expression; [3]): −0.836
- ΔΨm [1, 3]: 0.000
- MTT [2, 3]: −0.780
- ROS (reactive oxygen species; [3]): −0.115
- mitoOX (mtOXPHOS transcripts; [3]): −0.701
- Viability (C2C12 myotubes; [3]): −0.721
- nucOX (nuOXPHOS transcripts; [3]): −0.849
- cyt c (cytochrome c; [3]): 0.757

Compound: CC(C)c1ccc2c(c1)CC[C@H]1[C@](C)(C(N)=O)CCC[C@]21C [dehydroabietamide]
- GE-HTS (OXPHOS gene expression; [4]): −0.843
- ΔΨm [1, 4]: 1.642
- MTT [2, 4]: −0.187
- ROS (reactive oxygen species; [4]): −0.130
- mitoOX (mtOXPHOS transcripts; [4]): −0.877
- Viability (C2C12 myotubes; [4]): 0.807
- nucOX (nuOXPHOS transcripts; [4]): −0.731
- cyt c (cytochrome c; [4]): 0.030

Compound: COc1ccc(C(=O)c2ccc(O)cc2)c(O)c1O [2,3,4′-trihydroxy-4-methoxybenzophenone]
- GE-HTS (OXPHOS gene expression; [4]): −1.557
- ΔΨm [1, 4]: −1.356
- MTT [2, 4]: −0.475
- ROS (reactive oxygen species; [4]): −0.472
- mitoOX (mtOXPHOS transcripts; [4]): −1.476
- Viability (C2C12 myotubes; [4]): −0.403
- nucOX (nuOXPHOS transcripts; [4]): −1.472
- cyt c (cytochrome c; [4]): 0.378

Compound: COc1cc2ccc(=O)oc2c(OC)c1OC [fraxidin methyl ether]
- GE-HTS (OXPHOS gene expression; [5]): −0.124
- ΔΨm [1, 5]: −0.713
- MTT [2, 5]: −2.013
- ROS (reactive oxygen species; [5]): 0.276
- mitoOX (mtOXPHOS transcripts; [5]): −0.103
- Viability (C2C12 myotubes; [5]): −1.325
- nucOX (nuOXPHOS transcripts; [5]): −0.104
- cyt c (cytochrome c; [5]): −0.098

Compound: spiramycin
- GE-HTS (OXPHOS gene expression; [3]): −0.691
- ΔΨm [1, 3]: −0.686
- MTT [2, 3]: −0.770
- ROS (reactive oxygen species; [3]): 0.379
- mitoOX (mtOXPHOS transcripts; [3]): −0.204
- Viability (C2C12 myotubes; [3]): 0.176
- nucOX (nuOXPHOS transcripts; [3]): −0.867
- cyt c (cytochrome c; [3]): 0.216

Compound: CCC(N)C(O)c1ccc(O)c(O)c1 (stereo not drawn) [ethylnorepinephrine]
- GE-HTS (composite Z-score) (OXPHOS gene expression; Conc 20 μM): −0.475
- ΔΨm (composite Z-score) ([1]; Conc 20 μM): −2.053
- MTT (composite Z-score) ([2]; Conc 20 μM): −1.017
- ROS (composite Z-score) (reactive oxygen species; Conc 20 μM): −0.396
- mitoOX (composite Z-score) (mtOXPHOS transcripts; Conc 20 μM): −0.921
- Viability (composite Z-score) (C2C12 myotubes; Conc 20 μM): −0.508
- nucOX (composite Z-score) (nuOXPHOS transcripts; Conc 20 μM): −0.195
- cyt c (composite Z-score) (cytochrome c; Conc 20 μM): −0.439

Compound: CC1(C)S[C@@H]2[C@H](N3C(=O)[C@@H](c4ccccc4)NC3(C)C)C(=O)N2[C@H]1C(=O)O [hetacillin]
- GE-HTS (OXPHOS gene expression; [3]): −0.200
- ΔΨm [1, 3]: −0.787
- MTT [2, 3]: −0.663
- ROS (reactive oxygen species; [3]): 1.132
- mitoOX (mtOXPHOS transcripts; [3]): −0.302
- Viability (C2C12 myotubes; [3]): −0.642
- nucOX (nuOXPHOS transcripts; [3]): −0.094
- cyt c (cytochrome c; [3]): 0.731

Compound: CC(=O)O[C@H]1C[C@@H](OC(C)=O)C(C)(C)[C@@H]2C[C@@H](OC(C)=O)[C@]3(C)[C@H](CC[C@@]4(C)[C@H](c5ccoc5)OC(=O)[C@H]5O[C@@]534)[C@@]12C [khivorin]
- GE-HTS (OXPHOS gene expression; [5]): −0.144
- ΔΨm [1, 5]: −0.145
- MTT [2, 5]: −1.421
- ROS (reactive oxygen species; [5]): 0.187
- mitoOX (mtOXPHOS transcripts; [5]): −0.423
- Viability (C2C12 myotubes; [5]): 0.807
- nucOX (nuOXPHOS transcripts; [5]): −0.022
- cyt c (cytochrome c; [5]): 0.229

Compound: CCC(=O)OC1[C@@H]2CC3=C4CC(=O)O[C@@H](c5ccoc5)[C@]4(C)CCC3[C@@](C)(C2=O)[C@@H](CC(=O)OC)C1(C)C (stereo partly drawn) [khayasin C]
- GE-HTS (OXPHOS gene expression; [5]): 0.442
- ΔΨm [1, 5]: −0.095
- MTT [2, 5]: −1.678
- ROS (reactive oxygen species; [5]): −0.078
- mitoOX (mtOXPHOS transcripts; [5]): 1.232
- Viability (C2C12 myotubes; [5]): −1.021
- nucOX (nuOXPHOS transcripts; [5]): 0.033
- cyt c (cytochrome c; [5]): −0.654

Compound: Cc1cc(C2CCCCC2)n(O)c(=O)c1 [ciclopirox olamine]
- GE-HTS (OXPHOS gene expression; [6]): −0.965
- ΔΨm [1, 6]: 2.355
- MTT [2, 6]: −3.390
- ROS (reactive oxygen species; [6]): −1.545
- mitoOX (mtOXPHOS transcripts; [6]): −0.569
- Viability (C2C12 myotubes; [6]): −1.409
- nucOX (nuOXPHOS transcripts; [6]): −1.098
- cyt c (cytochrome c; [6]): −0.381

Compound: N=c1ccn2c(n1)O[C@H]1[C@H](O)[C@@H](CO)O[C@H]12 [ancitabine]
- GE-HTS (composite Z-score) (OXPHOS gene expression; Conc 20 μM): −1.115
- ΔΨm (composite Z-score) ([1]; Conc 20 μM): −0.986
- MTT (composite Z-score) ([2]; Conc 20 μM): −2.731
- ROS (composite Z-score) (reactive oxygen species; Conc 20 μM): −0.189
- mitoOX (composite Z-score) (mtOXPHOS transcripts; Conc 20 μM): −0.726
- Viability (composite Z-score) (C2C12 myotubes; Conc 20 μM): −0.655
- nucOX (composite Z-score) (nuOXPHOS transcripts; Conc 20 μM): −1.182
- cyt c (composite Z-score) (cytochrome c; Conc 20 μM): −0.158

Compound: Oc1c(Cl)cc(Cl)c(Cl)c1Cc1c(O)c(Cl)cc(Cl)c1Cl [hexachlorophene]
- GE-HTS (OXPHOS gene expression; [7]): −2.471
- ΔΨm [1, 7]: −2.559
- MTT [2, 7]: −1.203
- ROS (reactive oxygen species; [7]): −3.378
- mitoOX (mtOXPHOS transcripts; [7]): −4.169
- Viability (C2C12 myotubes; [7]): −3.480
- nucOX (nuOXPHOS transcripts; [7]): −1.371
- cyt c (cytochrome c; [7]): −2.828

Compound: COc1cc2c(cc1OC)[C@@H]1C(=O)c3ccc4c(c3O[C@@H]1CO2)CC(C(C)C)O4 (stereo partly drawn) [dihydrorotenone, reference compound]
- GE-HTS (OXPHOS gene expression; [3]): −2.179
- ΔΨm [1, 3]: −0.314
- MTT [2, 3]: −4.020
- ROS (reactive oxygen species; [3]): −0.682
- mitoOX (mtOXPHOS transcripts; [3]): −1.732
- Viability (C2C12 myotubes; [3]): 0.390
- nucOX (nuOXPHOS transcripts; [3]): −2.212
- cyt c (cytochrome c; [3]): −3.153

Compound: CC(=O)OCC(=O)[C@@]1(O)CCC2C3CC[C@@H]4C[C@H](OC(C)=O)CC[C@]4(C)C3C(=O)C[C@@]21C (stereo partly drawn) [tetrahydrocortisone-3,21-diacetate]
- GE-HTS (OXPHOS gene expression; [3]): −0.320
- ΔΨm [1, 3]: 0.074
- MTT [2, 3]: −0.664
- ROS (reactive oxygen species; [3]): 0.456
- mitoOX (mtOXPHOS transcripts; [3]): 0.269
- Viability (C2C12 myotubes; [3]): −0.030
- nucOX (nuOXPHOS transcripts; [3]): −0.558
- cyt c (cytochrome c; [3]): −0.397

Compound: N=C(N)N/N=C/c1c(Cl)cccc1Cl [guanabenz]
- GE-HTS (OXPHOS gene expression; [3]): −0.428
- ΔΨm [1, 3]: −1.073
- MTT [2, 3]: −0.886
- ROS (reactive oxygen species; [3]): 1.527
- mitoOX (mtOXPHOS transcripts; [3]): −0.563
- Viability (C2C12 myotubes; [3]): −0.404
- nucOX (nuOXPHOS transcripts; [3]): −0.286
- cyt c (cytochrome c; [3]): 0.420

Compound: CC(C)=CCOc1cc2oc(=O)ccc2cc1O [prenyletin]
- GE-HTS (OXPHOS gene expression; [5]): 0.113
- ΔΨm [1, 5]: 0.772
- MTT [2, 5]: −1.166
- ROS (reactive oxygen species; [5]): −0.090
- mitoOX (mtOXPHOS transcripts; [5]): 0.282
- Viability (C2C12 myotubes; [5]): 0.919
- nucOX (nuOXPHOS transcripts; [5]): −0.015
- cyt c (cytochrome c; [5]): 0.150

Compound: C#CC1(O)CC[C@H]2[C@@H]3CCC4=CC(=O)CC[C@@H]4[C@H]3CC[C@@]21CC (mixture of isomers) [norgestrel]
- GE-HTS (OXPHOS gene expression; [7]): −0.225
- ΔΨm [1, 7]: −0.965
- MTT [2, 7]: −0.761
- ROS (reactive oxygen species; [7]): 0.831
- mitoOX (mtOXPHOS transcripts; [7]): −0.187
- Viability (C2C12 myotubes; [7]): −0.966
- nucOX (nuOXPHOS transcripts; [7]): −0.183
- cyt c (cytochrome c; [7]): −0.027

Compound: COc1ccc(C[C@H](N)C(=O)N[C@H]2[C@@H](O)[C@H](n3cnc4c(N(C)C)ncnc43)O[C@@H]2CO)cc1 [Puromycin, reference compound]
- GE-HTS (OXPHOS gene expression; [3]): −3.348
- ΔΨm [1, 3]: −3.989
- MTT [2, 3]: −5.624
- ROS (reactive oxygen species; [3]): −2.665
- mito-OXPHOS Z (mtOXPHOS transcripts; [8]): 1.24
- mitoOX (mtOXPHOS transcripts; [3]): −1.331
- Viability (C2C12 myotubes; [3]): −5.718
- nucOXPHOS Z (nuOXPHOS transcripts; [8]): −2.80
- nucOX (nuOXPHOS transcripts; [3]): −4.017
- cyt c (cytochrome c; [3]): −5.573

Compound: CC(N/C(=N\C#N)Nc1ccncc1)C(C)(C)C (stereo not drawn) [pinacidil]
- GE-HTS (OXPHOS gene expression): −0.146
- GE-HTS (OXPHOS gene expression; [3]): −0.515
- ΔΨm [1]: −0.614
- ΔΨm [1, 3]: −0.949
- MTT [2]: −0.889
- MTT [2, 3]: −0.142
- ROS (reactive oxygen species): 0.383
- ROS (reactive oxygen species; [3]): 0.655
- mitoOX (mtOXPHOS transcripts): −0.498
- mitoOX (mtOXPHOS transcripts; [3]): −0.814
- Viability (C2C12 myotubes): −0.477
- Viability (C2C12 myotubes; [3]): −0.062
- nucOX (nuOXPHOS transcripts): 0.038
- nucOX (nuOXPHOS transcripts; [3]): −0.301
- cyt c (cytochrome c): 0.027
- cyt c (cytochrome c; [3]): 1.030
